Data published in patent US20230065740A1, “CYCLIN-DEPENDENT KINASE INHIBITORS” (SPV THERAPEUTICS INC., priority 2018, published 2023).
“And” between values parts separate entries of the source, which are not always exact repeats. Identical values can stand only once. Like-named read-outs stand apart in the source and are kept apart here.

Tests used:
[1] = target: T1, CDK6-CYCLIND3 (Homo sapiens, UniProt Q00534); assay: Microfluidic LabChip kinase inhibition assay, CDK6-CyclinD3; format: biochemical; settings: 300 μM ATP
T1 construct: purchased Carna

[2] = target: CDK4-CYCLIND1 (Homo sapiens, UniProt P11802); assay: Microfluidic LabChip kinase inhibition assay, CDK4-CyclinD1; settings: 200 μM ATP
[3] = Table 2, 2 nM enzyme, read-out: CDK6 IC50
[4] = CDK4 IC50 (μM), Table 2, 1 nM enzyme
[5] = Table 3a, read-out: CDK6 CyclinD3 IC50
[6] = Table 3b, read-out: CDK6 CyclinD3 IC50
[7] = CDK4 CyclinD1 IC50 (μM), Table 3a, second value in parentheses on the next line
[8] = CDK4 CyclinD1 IC50 (μM), Table 3b, second value in parentheses on the next line

Sequence of CDK4-CYCLIND1 (P11802 whole entry): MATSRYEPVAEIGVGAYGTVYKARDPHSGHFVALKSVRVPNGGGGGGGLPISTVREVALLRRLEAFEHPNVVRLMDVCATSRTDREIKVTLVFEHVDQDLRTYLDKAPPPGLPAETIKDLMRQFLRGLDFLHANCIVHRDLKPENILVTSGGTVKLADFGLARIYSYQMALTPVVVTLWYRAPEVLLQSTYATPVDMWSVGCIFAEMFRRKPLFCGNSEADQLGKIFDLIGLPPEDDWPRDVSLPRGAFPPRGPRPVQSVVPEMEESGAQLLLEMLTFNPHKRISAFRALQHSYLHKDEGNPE
Sequence of CDK4-CYCLIND1 (P24385 whole entry partner): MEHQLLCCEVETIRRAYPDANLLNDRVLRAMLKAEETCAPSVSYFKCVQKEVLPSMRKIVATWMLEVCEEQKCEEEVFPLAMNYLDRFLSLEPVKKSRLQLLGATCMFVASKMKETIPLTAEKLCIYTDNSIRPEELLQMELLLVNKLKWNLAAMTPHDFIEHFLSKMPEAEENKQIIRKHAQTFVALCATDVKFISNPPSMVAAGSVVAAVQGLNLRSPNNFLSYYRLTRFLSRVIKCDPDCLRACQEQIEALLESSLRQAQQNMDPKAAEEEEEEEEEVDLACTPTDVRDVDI
T1 sequence (Q00534 whole entry): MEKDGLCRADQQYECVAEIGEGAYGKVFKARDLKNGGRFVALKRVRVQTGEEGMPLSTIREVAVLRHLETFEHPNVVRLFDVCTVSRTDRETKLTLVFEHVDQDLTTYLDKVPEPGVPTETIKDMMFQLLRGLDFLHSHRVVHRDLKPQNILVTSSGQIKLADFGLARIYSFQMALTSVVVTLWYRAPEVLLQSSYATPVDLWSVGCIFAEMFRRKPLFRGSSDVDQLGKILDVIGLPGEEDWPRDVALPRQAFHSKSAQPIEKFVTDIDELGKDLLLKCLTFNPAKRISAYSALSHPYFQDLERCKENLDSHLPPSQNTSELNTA
T1 sequence (P30281 whole entry partner): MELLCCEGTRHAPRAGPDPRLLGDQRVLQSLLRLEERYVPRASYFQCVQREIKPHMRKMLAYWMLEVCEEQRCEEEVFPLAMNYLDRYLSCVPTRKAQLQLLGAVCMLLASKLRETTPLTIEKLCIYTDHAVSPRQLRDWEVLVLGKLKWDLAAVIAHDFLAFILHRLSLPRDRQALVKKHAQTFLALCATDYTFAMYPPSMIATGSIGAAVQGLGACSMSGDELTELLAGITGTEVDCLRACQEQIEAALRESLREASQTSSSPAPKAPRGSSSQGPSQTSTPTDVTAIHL

SMILES	IC50 [1, 3] [µM]	IC50 [2, 4] [µM]	IC50 [1, 5] [µM]	IC50 [1, 6] [µM]	IC50 [2, 7]	IC50 [2, 8]
CC(C)N1CCN(c2ccc(Nc3ncc4c(n3)N(C3CCCC3)C3(CCN(Cc5ccccc5)C3=O)C4)nc2)CC1 (centres unmarked) [Compound C23, 1-benzyl-7′-cyclopentyl-2′-((5-(4-isopropylpiperazin-1-yl)pyridin-2-yl)amino)-5′,7′-dihydrospiro[pyrrolidine-3,6′-pyrrolo[2,3-d]pyrimidin]-2-one]	> 30	17.7	–	–	–	–
CN1CCN(c2ccc(Nc3ncc4c(n3)N(C3CCCC3)C3(CCCN(Cc5ccccc5)C3=O)C4)c(F)c2)CC1 (centres unmarked) [Compound C42, 1-benzyl-7′-cyclopentyl-2′-((2-fluoro-4-(4-methylpiperazin-1-yl)phenyl)amino)-5′,7′-dihydrospiro[piperidine-3,6′-pyrrolo[2,3-d]pyrimidin]-2-one]	12.1	4.46	–	–	–	–
COc1ccc(CN2CCC3(Cc4cnc(Nc5ccc(OCCN(C)C)cn5)nc4N3C3CCCC3)C2=O)cc1 (centres unmarked) [Compound C32, 7′-cyclopentyl-2′-((5-(2-(dimethylamino)ethoxy)pyridin-2-yl)amino)-1-(4-methoxybenzyl)-5′,7′-dihydrospiro[pyrrolidine-3,6′-pyrrolo[2,3-d]pyrimidin]-2-one]	> 30	10.5	–	–	–	–
CN1CCN(c2ccc(Nc3ncc4c(n3)N(C3CCCC3)C3(CCN(C)C3=O)C4)cc2)CC1 (centres unmarked) [Compound C1, 7′-cyclopentyl-1-methyl-2′-((4-(4-methylpiperazin-1-yl)phenyl)amino)-5′,7′-dihydrospiro[pyrrolidine-3,6′-pyrrolo[2,3-d]pyrimidin]-2-one]	19.1	4.74	–	–	–	–
O=C1NCCC12C(=O)N(C1CCCC1)c1nc(Nc3ccc(N4CCNCC4)c(F)c3)ncc12 (centres unmarked) [Compound C102, 7′-cyclopentyl-2′-((3-fluoro-4-(piperazin-1-yl)phenyl)amino)spiro[pyrrolidine-3,5′-pyrrolo[2,3-d]pyrimidine]-2,6′(7′H)-dione]	25.5	21.8	–	–	–	–
CN1CCN(c2ccc(Nc3ncc4c(n3)N(C3CCCC3)C3(CCN(Cc5ccccc5)C3=O)C4)c(F)c2)CC1 (centres unmarked) [Compound C41, 1-benzyl-7′-cyclopentyl-2′-((2-fluoro-4-(4-methylpiperazin-1-yl)phenyl)amino)-5′,7′-dihydrospiro[pyrrolidine-3,6′-pyrrolo[2,3-d]pyrimidin]-2-one]	12.8	5.98	–	–	–	–
CN(C)CCOc1ccc(Nc2ncc3c(n2)N(C2CCCC2)C2(CCNC2=O)C3)nc1 (centres unmarked) [Compound C60, 7′-cyclopentyl-2′-((5-(2-(dimethylamino)ethoxy)pyridin-2-yl)amino)-5′,7′-dihydrospiro[pyrrolidine-3,6′-pyrrolo[2,3-d]pyrimidin]-2-one]	3.42	1.5	–	–	–	–
CC(C)N1CCN(c2ccc(Nc3ncc4c(n3)N(C3CCCC3)C3(CC(=O)N(C)C3=O)C4)nc2)CC1 (centres unmarked) [Compound C67, 7′-cyclopentyl-2′-((5-(4-isopropylpiperazin-1-yl)pyridin-2-yl)amino)-1-methyl-5′,7′-dihydrospiro[pyrrolidine-3,6′-pyrrolo[2,3-d]pyrimidine]-2,5-dione]	> 30	26.7	–	–	–	–
O=C1CC2(Cc3cnc(Nc4ccc(N5CCOCC5)c(F)c4)nc3N2C2CCCC2)C(=O)N1 (centres unmarked) [Compound C86, 7′-cyclopentyl-2′-((3-fluoro-4-morpholinophenyl)amino)-5′,7′-dihydrospiro[pyrrolidine-3,6′-pyrrolo[2,3-d]pyrimidine]-2,5-dione]	0.461	0.101	–	–	–	–
CN1CCN(c2ccc(Nc3ncc4c(n3)N(C3CCCC3)C3(CCCN(C)C3=O)C4)nc2)CC1 (centres unmarked) [Compound C26, 7′-cyclopentyl-1-methyl-2′-((5-(4-methylpiperazin-1-yl)pyridin-2-yl)amino)-5′,7′-dihydrospiro[piperidine-3,6′-pyrrolo[2,3-d]pyrimidin]-2-one]	> 30	> 30	–	–	–	–
CN1CCN(c2ccc(Nc3ncc4c(n3)N(C3CCCC3)C3(CCN(Cc5ccccc5)C3=O)C4)cc2F)CC1 (centres unmarked) [Compound C39, 1-benzyl-7′-cyclopentyl-2′-((3-fluoro-4-(4-methylpiperazin-1-yl)phenyl)amino)-5′,7′-dihydrospiro[pyrrolidine-3,6′-pyrrolo[2,3-d]pyrimidin]-2-one]	2.55	0.53	–	–	–	–
O=C1NCCC12Cc1cnc(Nc3ccc(N4CC5(CNC5)C4)c(F)c3)nc1N2C1CCCC1 (centres unmarked) [Compound C107, 7′-cyclopentyl-2′-((3-fluoro-4-(2,6-diazaspiro[3.3]heptan-2-yl)phenyl)amino)-5′,7′-dihydrospiro[pyrrolidine-3,6′-pyrrolo[2,3-d]pyrimidin]-2-one]	0.335	0.0866	–	–	–	–
Cc1cc(Nc2ncc3c(n2)N(C2CCCC2)C2(CCNC2=O)C3)ccc1N1CCN(C(C)C)CC1 (centres unmarked) [Compound C63, 7′-cyclopentyl-2′-((4-(4-isopropylpiperazin-1-yl)-3-methylphenyl)amino)-5′,7′-dihydrospiro[pyrrolidine-3,6′-pyrrolo[2,3-d]pyrimidin]-2-one]	0.899	0.172	–	–	–	–
CN1CCN(c2ccc(Nc3ncc4c(n3)N(C3CCCC3)C3(CCN(Cc5ccccc5)C3=O)C4)nc2)CC1 (centres unmarked) [Compound C22, 1-benzyl-7′-cyclopentyl-2′-((5-(4-methylpiperazin-1-yl)pyridin-2-yl)amino)-5′,7′-dihydrospiro[pyrrolidine-3,6′-pyrrolo[2,3-d]pyrimidin]-2-one]	> 30	16.5	–	–	–	–
CN1CCN(c2ccc(Nc3ncc4c(n3)N(C3CCCC3)C3(CC(=O)NC3=O)C4)cc2F)CC1 (centres unmarked) [Compound C81, 7′-cyclopentyl-2′-((3-fluoro-4-(4-methylpiperazin-1-yl)phenyl)amino)-5′,7′-dihydrospiro[pyrrolidine-3,6′-pyrrolo[2,3-d]pyrimidine]-2,5-dione]	0.0733	0.0162	–	–	–	–
CN1CCN(c2ccc(Nc3ncc4c(n3)N(C3CCCCC3)C3(CCNC3=O)C4)cc2F)CC1 (centres unmarked) [Compound C200, 7′-cyclohexyl-2′-((3-fluoro-4-(4-methylpiperazin-1-yl)phenyl)amino)-5′,7′-dihydrospiro[pyrrolidine-3,6′-pyrrolo[2,3-d]pyrimidin]-2-one]	–	–	0.069	0.069	0.0138 µM and 0.0102 µM	0.0138 µM and 0.0102 µM
CN1CCN(c2ccc(Nc3ncc4c(n3)N(C3CCCC3)C3(CCCNC3=O)C4)nc2)CC1 (centres unmarked) [Compound C36, 7′-cyclopentyl-2′-((5-(4-methylpiperazin-1-yl)pyridin-2-yl)amino)-5′,7′-dihydrospiro[piperidine-3,6′-pyrrolo[2,3-d]pyrimidin]-2-one]	> 30	29.3	–	–	–	–
O=C1NCCC12Cc1cnc(Nc3ccc(N4CCNCC4)c(F)c3)nc1N2C1CCCC1 (centres unmarked) [Compound C47, 7′-cyclopentyl-2′-((3-fluoro-4-(piperazin-1-yl)phenyl)amino)-5′,7′-dihydrospiro[pyrrolidine-3,6′-pyrrolo[2,3-d]pyrimidin]-2-one]	0.179	0.0315	–	–	–	–
CN(C)CCOc1ccc(Nc2ncc3c(n2)N(C2CCCC2)C2(CC(=O)NC2=O)C3)nc1 (centres unmarked) [Compound C92, 7′-cyclopentyl-2′-((5-(2-(dimethylamino)ethoxy)pyridin-2-yl)amino)-5′,7′-dihydrospiro[pyrrolidine-3,6′-pyrrolo[2,3-d]pyrimidine]-2,5-dione]	0.0955	0.0831	–	–	–	–
CN1CCN(c2ccc(Nc3ncc4c(n3)N(C3CCCC3)C3(CC(=O)NC3=O)C4)cn2)CC1 (centres unmarked) [Compound C84, 7′-cyclopentyl-2′-((6-(4-methylpiperazin-1-yl)pyridin-3-yl)amino)-5′,7′-dihydrospiro[pyrrolidine-3,6′-pyrrolo[2,3-d]pyrimidine]-2,5-dione]	0.173	0.0399	–	–	–	–
CN1C(=O)CC2(Cc3cnc(Nc4ccc(N5CCNCC5)cc4)nc3N2C2CCCC2)C1=O (centres unmarked) [Compound C68, 7′-cyclopentyl-1-methyl-2′-((4-(piperazin-1-yl)phenyl)amino)-5′,7′-dihydrospiro[pyrrolidine-3,6′-pyrrolo[2,3-d]pyrimidine]-2,5-dione]	6.68	2.49	–	–	–	–
CN1CCN(c2ccc(Nc3ncc4c(n3)N(C3CCCC3)C3(CCNC3=O)C4)cc2F)CC1 (single isomer, unassigned) [Compound C206, 7′-cyclopentyl-2′-((3-fluoro-4-(4-methylpiperazin-1-yl)phenyl)amino)-5′,7′-dihydrospiro[pyrrolidine-3,6′-pyrrolo[2,3-d]pyrimidin]-2-one]	–	–	15.8	15.8	5.14 µM	5.14 µM
O=C1N(Cc2ccccc2)CCC12Cc1cnc(Nc3ccc(N4CCNCC4)cn3)nc1N2C1CCCC1 (centres unmarked) [Compound C21]	> 30	> 30	–	–	–	–
CN1CCCC2(Cc3cnc(Nc4ccc(N5CCNCC5)cc4)nc3N2C2CCCC2)C1=O (centres unmarked) [Compound C8, 7′-cyclopentyl-1-methyl-2′-((4-(piperazin-1-yl)phenyl)amino)-5′,7′-dihydrospiro[piperidine-3,6′-pyrrolo[2,3-d]pyrimidin]-2-one]	> 30	> 30	–	–	–	–
CN1CCN(c2ccc(Nc3ncc4c(n3)N(C3CCCC3)C(=O)C43CCNC3=O)cc2F)CC1 (centres unmarked) [Compound C103, 7′-cyclopentyl-2′-((3-fluoro-4-(4-methylpiperazin-1-yl)phenyl)amino)spiro[pyrrolidine-3,5′-pyrrolo[2,3-d]pyrimidine]-2,6′(7′H)-dione]	50.7	20	–	–	–	–
O=C1NCCC12Cc1cnc(Nc3cc(C(F)(F)F)c(N4CCNCC4)cn3)nc1N2C1CCCC1 (centres unmarked) [Compound C17, 7′-cyclopentyl-2′-((5-(piperazin-1-yl)-4-(trifluoromethyl)pyridin-2-yl)amino)-5′,7′-dihydrospiro[pyrrolidine-3,6′-pyrrolo[2,3-d]pyrimidin]-2-one]	> 30	18.8	–	–	–	–
